# Assay results as given in patent publication US20240025884A1 (Dong-A ST Co., Ltd., priority 2022, published 2024).
# Biological target: GCN2 (Homo sapiens (Human), UniProt Q9P2K8)
# Test: GCN2 Biochemical Assay (TR-FRET, GFP-eIF2S1 substrate phosphorylation)
# Details: read-out: IC50 (GCN2 Inhibitory Activity)
# Outline: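 In-house GCN2 (1.6 nM 2× stock) phosphorylates GFP-eIF2S1 (50 nM 2× stock) with ATP (0.2 mM 2× stock) and tRNA, pH 7.5, 70 min at room temperature; 10-point 3.16-fold compound series. TR-FRET detection with Tb-anti-phospho antibody, 2–3 h, Ex 340/Em 490/520 nm; artifact plate spiked with phospho-substrate.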
# Chain of GCN2 (Q9P2K8 whole entry): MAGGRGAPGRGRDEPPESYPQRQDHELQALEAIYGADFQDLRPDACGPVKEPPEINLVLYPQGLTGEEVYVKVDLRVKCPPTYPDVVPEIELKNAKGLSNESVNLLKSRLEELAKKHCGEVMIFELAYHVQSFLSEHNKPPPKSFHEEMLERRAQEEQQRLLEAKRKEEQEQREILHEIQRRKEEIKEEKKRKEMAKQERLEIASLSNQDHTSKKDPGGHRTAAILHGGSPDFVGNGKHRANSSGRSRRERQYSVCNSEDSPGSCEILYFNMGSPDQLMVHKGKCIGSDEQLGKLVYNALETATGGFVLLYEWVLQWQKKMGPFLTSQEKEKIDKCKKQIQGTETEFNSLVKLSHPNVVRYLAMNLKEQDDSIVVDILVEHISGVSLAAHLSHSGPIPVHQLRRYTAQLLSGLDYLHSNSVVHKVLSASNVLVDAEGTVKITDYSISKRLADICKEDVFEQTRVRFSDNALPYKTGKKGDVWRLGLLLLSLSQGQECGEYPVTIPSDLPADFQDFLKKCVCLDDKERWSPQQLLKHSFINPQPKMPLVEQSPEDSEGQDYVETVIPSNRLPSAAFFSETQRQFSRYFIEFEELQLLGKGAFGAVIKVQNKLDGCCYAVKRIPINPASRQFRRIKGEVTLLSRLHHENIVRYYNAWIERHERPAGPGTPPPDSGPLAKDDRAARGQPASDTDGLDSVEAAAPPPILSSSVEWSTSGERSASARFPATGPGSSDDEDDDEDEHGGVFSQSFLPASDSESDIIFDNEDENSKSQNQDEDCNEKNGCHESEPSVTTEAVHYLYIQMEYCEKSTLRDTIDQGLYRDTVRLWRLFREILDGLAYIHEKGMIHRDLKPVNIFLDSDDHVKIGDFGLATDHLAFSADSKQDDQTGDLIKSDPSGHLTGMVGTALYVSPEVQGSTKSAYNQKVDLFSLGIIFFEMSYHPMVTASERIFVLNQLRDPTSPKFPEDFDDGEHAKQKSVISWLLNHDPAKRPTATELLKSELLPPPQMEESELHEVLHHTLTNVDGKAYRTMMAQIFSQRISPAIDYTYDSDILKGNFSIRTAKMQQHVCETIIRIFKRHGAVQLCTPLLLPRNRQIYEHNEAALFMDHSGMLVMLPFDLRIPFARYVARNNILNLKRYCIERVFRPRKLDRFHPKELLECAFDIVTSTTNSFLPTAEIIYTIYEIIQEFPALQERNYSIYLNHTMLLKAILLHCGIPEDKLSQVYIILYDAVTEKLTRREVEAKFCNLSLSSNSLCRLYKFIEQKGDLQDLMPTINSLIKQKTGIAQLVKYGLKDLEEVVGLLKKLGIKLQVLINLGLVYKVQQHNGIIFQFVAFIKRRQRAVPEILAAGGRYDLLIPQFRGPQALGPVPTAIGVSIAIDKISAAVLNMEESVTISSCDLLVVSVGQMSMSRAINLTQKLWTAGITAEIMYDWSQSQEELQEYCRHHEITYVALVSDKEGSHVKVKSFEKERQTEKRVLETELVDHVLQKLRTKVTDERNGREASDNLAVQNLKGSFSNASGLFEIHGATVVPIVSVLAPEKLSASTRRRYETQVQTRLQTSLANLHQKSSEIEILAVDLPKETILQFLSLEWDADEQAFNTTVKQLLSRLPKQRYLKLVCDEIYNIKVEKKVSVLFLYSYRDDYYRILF
row,IC50 [nM],Compound
1,< 10,"CCN(C)c1nc(O[C@H]2CCN(CC(=O)Nc3cccc4c(-c5nc(Nc6cc(C)n(C)n6)ncc5C)c[nH]c34)C2)ncc1F [Example 182, (S)-N-(3-(2-((1,5-dimethyl-1H-pyrazol-3-yl)amino)-5-methylpyrimidin-4-yl)-1H-indol-7-yl)-2-(3-((4-(ethyl(methyl)amino)-5-fluoropyrimidin-2-yl)oxy)pyrrolidin-1-yl)acetamide]"
2,< 10,"CCN(CC)c1nc(O[C@H]2CCN(CC(=O)Nc3cccc4c(-c5nc(Nc6cc(C)n(C)n6)ncc5C)c[nH]c34)C2)ncc1F [Example 183, (S)-2-(3-((4-(diethylamino)-5-fluoropyrimidin-2-yl)oxy)pyrrolidin-1-yl)-N-(3-(2-((1,5-dimethyl-1H-pyrazol-3-yl)amino)-5-methylpyrimidin-4-yl)-1H-indol-7-yl)acetamide]"
3,10 to 100,"Cc1cnc(Nc2cc(C)n(C)n2)nc1-c1c[nH]c2c(NC(=O)CN3CC[C@H](Oc4ncc(F)c(N(C)c5ccccc5)n4)C3)cccc12 [Example 184, (S)-N-(3-(2-((1,5-dimethyl-1H-pyrazol-3-yl)amino)-5-methylpyrimidin-4-yl)-1H-indol-7-yl)-2-(3-((5-fluoro-4-(methyl(phenyl)amino)pyrimidin-2-yl)oxy)pyrrolidin-1-yl)acetamide]"
4,< 10,"Cc1cnc(Nc2cc(C)n(C)n2)nc1-c1c[nH]c2c(NC(=O)CN3CC[C@H](Oc4ncc(F)c(N(C)Cc5ccccc5)n4)C3)cccc12 [Example 185, (S)-2-(3-((4-(benzyl(methyl)amino)-5-fluoropyrimidin-2-yl)oxy)pyrrolidin-1-yl)-N-(3-(2-((1,5-dimethyl-1H-pyrazol-3-yl)amino)-5-methylpyrimidin-4-yl)-1H-indol-7-yl)acetamide]"
5,< 10,"Cc1cnc(Nc2cc(C)n(C)n2)nc1-c1c[nH]c2c(NC(=O)CN3CC[C@H](Oc4ncc(F)c(N5CCCC5)n4)C3)cccc12 [Example 186, (S)-N-(3-(2-((1,5-dimethyl-1H-pyrazol-3-yl)amino)-5-methylpyrimidin-4-yl)-1H-indol-7-yl)-2-(3-((5-fluoro-4-(pyrrolidin-1-yl)pyrimidin-2-yl)oxy)pyrrolidin-1-yl)acetamide]"
6,< 10,"Cc1cnc(Nc2cc(C)n(C)n2)nc1-c1c[nH]c2c(NC(=O)CN3CC[C@H](Oc4ncc(F)c(N5CCCCC5)n4)C3)cccc12 [Example 187, (S)-N-(3-(2-((1,5-dimethyl-1H-pyrazol-3-yl)amino)-5-methylpyrimidin-4-yl)-1H-indol-7-yl)-2-(3-((5-fluoro-4-(piperidin-1-yl)pyrimidin-2-yl)oxy)pyrrolidin-1-yl)acetamide]"
7,< 10,"Cc1cnc(Nc2cc(C)n(C)n2)nc1-c1c[nH]c2c(NC(=O)CN3CC[C@H](Oc4ncc(F)c(N5CCOCC5)n4)C3)cccc12 [Example 188, (S)-N-(3-(2-((1,5-dimethyl-1H-pyrazol-3-yl)amino)-5-methylpyrimidin-4-yl)-1H-indol-7-yl)-2-(3-((5-fluoro-4-morpholinopyrimidin-2-yl)oxy)pyrrolidin-1-yl)acetamide]"
8,< 10,"Cc1cnc(Nc2cc(C)n(C)n2)nc1-c1c[nH]c2c(NC(=O)CN3CC[C@H](Oc4ncc(F)c(N5CCSCC5)n4)C3)cccc12 [Example 189, (S)-N-(3-(2-((1,5-dimethyl-1H-pyrazol-3-yl)amino)-5-methylpyrimidin-4-yl)-1H-indol-7-yl)-2-(3-((5-fluoro-4-thiomorpholinopyrimidin-2-yl)oxy)pyrrolidin-1-yl)acetamide]"
9,< 10,"Cc1cnc(Nc2cc(C)n(C)n2)nc1-c1c[nH]c2c(NC(=O)CN3CC[C@H](Oc4ncc(F)c(N5CCN(C)CC5)n4)C3)cccc12 [Example 190, (S)-N-(3-(2-((1,5-dimethyl-1H-pyrazol-3-yl)amino)-5-methylpyrimidin-4-yl)-1H-indol-7-yl)-2-(3-((5-fluoro-4-(4-methylpiperazin-1-yl)pyrimidin-2-yl)oxy)pyrrolidin-1-yl)acetamide]"
10,< 10,"Cc1cnc(O[C@H]2CCN(CC(=O)Nc3cccc4c(-c5nc(Nc6cc(C)n(C)n6)ncc5C)c[nH]c34)C2)nc1NC1CC1 [Example 191, (S)-2-(3-((4-(cyclopropylamino)-5-methylpyrimidin-2-yl)oxy)pyrrolidin-1-yl)-N-(3-(2-((1,5-dimethyl-1H-pyrazol-3-yl)amino)-5-methylpyrimidin-4-yl)-1H-indol-7-yl)acetamide]"
11,< 10,"Cc1cnc(Nc2cc(C)n(C)n2)nc1-c1c[nH]c2c(NC(=O)CN3CC[C@H](Oc4ccnc(N)n4)C3)cccc12 [Example 192, (S)-2-(3-((2-aminopyrimidin-4-yl)oxy)pyrrolidin-1-yl)-N-(3-(2-((1,5-dimethyl-1H-pyrazol-3-yl)amino)-5-methylpyrimidin-4-yl)-1H-indol-7-yl)acetamide]"
12,< 10,"CSc1nccc(O[C@H]2CCN(CC(=O)Nc3cccc4c(-c5nc(Nc6cc(C)n(C)n6)ncc5C)c[nH]c34)C2)n1 [Example 193, (S)-N-(3-(2-((1,5-dimethyl-1H-pyrazol-3-yl)amino)-5-methylpyrimidin-4-yl)-1H-indol-7-yl)-2-(3-((2-(methylthio)pyrimidin-4-yl)oxy)pyrrolidin-1-yl)acetamide]"
13,< 10,"COc1nccc(O[C@H]2CCN(CC(=O)Nc3cccc4c(-c5nc(Nc6cc(C)n(C)n6)ncc5C)c[nH]c34)C2)n1 [Example 194, (S)-N-(3-(2-((1,5-dimethyl-1H-pyrazol-3-yl)amino)-5-methylpyrimidin-4-yl)-1H-indol-7-yl)-2-(3-((2-methoxypyrimidin-4-yl)oxy)pyrrolidin-1-yl)acetamide]"
14,10 to 100,"Cc1cnc(Nc2cc(C)n(C)n2)nc1-c1c[nH]c2c(NC(=O)CN3CC[C@H](Oc4ccnc(OCc5ccccc5)n4)C3)cccc12 [Example 195, (S)-2-(3-((2-(benzyloxy)pyrimidin-4-yl)oxy)pyrrolidin-1-yl)-N-(3-(2-((1,5-dimethyl-1H-pyrazol-3-yl)amino)-5-methylpyrimidin-4-yl)-1H-indol-7-yl)acetamide]"
15,< 10,"CC(=O)Nc1nccc(O[C@H]2CCN(CC(=O)Nc3cccc4c(-c5nc(Nc6cc(C)n(C)n6)ncc5C)c[nH]c34)C2)n1 [Example 196, (S)-2-(3-((2-acetamidopyrimidin-4-yl)oxy)pyrrolidin-1-yl)-N-(3-(2-((1,5-dimethyl-1H-pyrazol-3-yl)amino)-5-methylpyrimidin-4-yl)-1H-indol-7-yl)acetamide]"
16,< 10,"CNc1nccc(O[C@H]2CCN(CC(=O)Nc3cccc4c(-c5nc(Nc6cc(C)n(C)n6)ncc5C)c[nH]c34)C2)n1 [Example 197, (S)-N-(3-(2-((1,5-dimethyl-1H-pyrazol-3-yl)amino)-5-methylpyrimidin-4-yl)-1H-indol-7-yl)-2-(3-((2-(methylamino)pyrimidin-4-yl)oxy)pyrrolidin-1-yl)acetamide]"
17,< 10,"Cc1cnc(Nc2cc(C)n(C)n2)nc1-c1c[nH]c2c(NC(=O)CN3CC[C@H](Oc4ccnc(NCC(F)(F)F)n4)C3)cccc12 [Example 198, (S)-N-(3-(2-((1,5-dimethyl-1H-pyrazol-3-yl)amino)-5-methylpyrimidin-4-yl)-1H-indol-7-yl)-2-(3-((2-((2,2,2-trifluoroethyl)amino)pyrimidin-4-yl)oxy)pyrrolidin-1-yl)acetamide]"
18,< 10,"Cc1cnc(Nc2cc(C)n(C)n2)nc1-c1c[nH]c2c(NC(=O)CN3CC[C@H](Oc4ccnc(NCC(C)(F)F)n4)C3)cccc12 [Example 199, (S)-2-(3-((2-((2,2-difluoropropyl)amino)pyrimidin-4-yl)oxy)pyrrolidin-1-yl)-N-(3-(2-((1,5-dimethyl-1H-pyrazol-3-yl)amino)-5-methylpyrimidin-4-yl)-1H-indol-7-yl)acetamide]"
19,< 10,"Cc1cnc(Nc2cc(C)n(C)n2)nc1-c1c[nH]c2c(NC(=O)CN3CC[C@H](Oc4ccnc(NCC(F)F)n4)C3)cccc12 [Example 200, (S)-2-(3-((2-((2,2-difluoroethyl)amino)pyrimidin-4-yl)oxy)pyrrolidin-1-yl)-N-(3-(2-((1,5-dimethyl-1H-pyrazol-3-yl)amino)-5-methylpyrimidin-4-yl)-1H-indol-7-yl)acetamide]"
20,10 to 100,"Cc1cnc(Nc2cc(C)n(C)n2)nc1-c1c[nH]c2c(NC(=O)CN3CC[C@H](Oc4ccnc(NC(C)C(F)(F)F)n4)C3)cccc12 (stereo partly drawn) [Example 201, N-(3-(2-((1,5-dimethyl-1H-pyrazol-3-yl)amino)-5-methylpyrimidin-4-yl)-1H-indol-7-yl)-2-((3S)-3-((2-((1,1,1-trifluoropropan-2-yl)amino)pyrimidin-4-yl)oxy)pyrrolidin-1-yl)acetamide]"
21,< 10,"Cc1cnc(Nc2cc(C)n(C)n2)nc1-c1c[nH]c2c(NC(=O)CN3CC[C@H](Oc4ccnc(NCCF)n4)C3)cccc12 [Example 202, (S)-N-(3-(2-((1,5-dimethyl-1H-pyrazol-3-yl)amino)-5-methylpyrimidin-4-yl)-1H-indol-7-yl)-2-(3-((2-((2-fluoroethyl)amino)pyrimidin-4-yl)oxy)pyrrolidin-1-yl)acetamide]"
22,< 10,"CCNc1nccc(O[C@H]2CCN(CC(=O)Nc3cccc4c(-c5nc(Nc6cc(C)n(C)n6)ncc5C)c[nH]c34)C2)n1 [Example 203, (S)-N-(3-(2-((1,5-dimethyl-1H-pyrazol-3-yl)amino)-5-methylpyrimidin-4-yl)-1H-indol-7-yl)-2-(3-((2-(ethylamino)pyrimidin-4-yl)oxy)pyrrolidin-1-yl)acetamide]"
23,< 10,"CCCNc1nccc(O[C@H]2CCN(CC(=O)Nc3cccc4c(-c5nc(Nc6cc(C)n(C)n6)ncc5C)c[nH]c34)C2)n1 [Example 204, (S)-N-(3-(2-((1,5-dimethyl-1H-pyrazol-3-yl)amino)-5-methylpyrimidin-4-yl)-1H-indol-7-yl)-2-(3-((2-(propylamino)pyrimidin-4-yl)oxy)pyrrolidin-1-yl)acetamide]"
